Reference: paper PMC6131539, “Behavioral Effects of a Potential Novel TAAR1 Antagonist” (Frontiers in Pharmacology, 2018)

Columns and labels:
C57BL/6J mice = test: Stereotypic counts, co-injection with amphetamine, C57BL/6J mice; assay type: in vivo; conditions: 5 and 20 mg/kg co-administered with amphetamine 2 mg/kg; sum over 60 min
Procedure: Experimentally naïve mice, of at least 12 weeks of age, were used for all behavioral experiments. The mice were randomly assigned to treatment or control groups, balanced by sex and weight. Locomotor activity was assessed using the automated locomotor analysis monitors (Omnitech Electronics, Columbus, OH, United States). The apparatus included four open field monitors. Each Open Field monitor consisted of sets of 16 light beams arrayed in the horizontal X and Y axes. The hardware detected beams broken by the animal, which allowed the software to determine the location of the mouse in the cage. Total distance covered by mice was used to characterize locomotor activity of the animals. The monitors were divided into four compartments (20 cm × 20 cm). Animals were tested individually for defined periods with 5-min intervals. The mice were first weighed and then placed into the apparatus, allowing for 30 min habituation. […] The locomotor activity was then measured for additional 1 h. […]
(A) Wild type C57BL/6J mice were first habituated for 30 min followed by the co-injection of amphetamine (2 mg/kg) and saline or compound 22 at doses 5, 15, 20, 25, 30, and 50 mg/kg. The locomotor activity was assessed for 60 min after the injection. Sum of stereotypic counts assessed over 60 min after the injection of amphetamine and compound 22. […] The locomotor activity was assessed for 60 min after the injection. […]

M1 = biological target: T1, M1 (Homo sapiens, UniProt P11229); test: PDSP binding, primary screen
T1 construct: purchased NIMH Psychoactive Drug Screening Program (PDSP), University of North Carolina-Chapel Hill
Procedure: (§1) This was achieved through the identification of potential pharmacological targets of compound 22 using the Psychoactive Drug Screening Program (PDSP) at University of North Carolina-Chapel-Hill. PDSP provides a platform for screening novel psychoactive compounds on human proteins expressed in the central nervous system in order to identify their biological target(s) ([Besnard et al., 2012]). Binding studies were done on 47 targets at a single dose of compound 22 (10 μM; Supplementary Table S1). This primary screen yielded a total of 5 hits for compound 22 (Table 2). These hits were the serotonin, dopamine, and norepinephrine transporters, as well as the sigma 1 and sigma 2 receptors.
(§2) Supplemental Table 1. Compound 22 binding studies from PDSP: primary screen for compound 22 and subsequent hits (50% cut-off, hits highlighted in red). The primary screen was performed by PDSP as described previously (Besnard et al., 2012).

5-HT1D = biological target: T2, 5-HT1D (Homo sapiens, UniProt P28221); test: PDSP binding, primary screen
T2 construct: purchased NIMH Psychoactive Drug Screening Program (PDSP), University of North Carolina-Chapel Hill
Procedure: as §1, §2

H1 = biological target: T3, H1 (Homo sapiens, UniProt P35367); test: PDSP binding, primary screen
T3 construct: purchased NIMH Psychoactive Drug Screening Program (PDSP), University of North Carolina-Chapel Hill
Procedure: as §1, §2

Beta3 = biological target: T4, Beta3 (Homo sapiens, UniProt P13945); test: PDSP binding, primary screen
T4 construct: purchased NIMH Psychoactive Drug Screening Program (PDSP), University of North Carolina-Chapel Hill
Procedure: as §1, §2

5-HT6 = biological target: T5, 5-HT6 (Homo sapiens, UniProt P50406); test: PDSP binding, primary screen
T5 construct: purchased NIMH Psychoactive Drug Screening Program (PDSP), University of North Carolina-Chapel Hill
Procedure: as §1, §2

H3 = biological target: T6, H3 (Homo sapiens, UniProt Q9Y5N1); test: PDSP binding, primary screen
T6 construct: purchased NIMH Psychoactive Drug Screening Program (PDSP), University of North Carolina-Chapel Hill
Procedure: as §1, §2

DAT = biological target: T7, DAT (Homo sapiens, UniProt Q01959); test: PDSP binding, primary screen
T7 construct: purchased NIMH Psychoactive Drug Screening Program (PDSP), University of North Carolina-Chapel Hill
Procedure: as §1, §2

Beta1 = biological target: T8, Beta1 (Homo sapiens, UniProt P08588); test: PDSP binding, primary screen
T8 construct: purchased NIMH Psychoactive Drug Screening Program (PDSP), University of North Carolina-Chapel Hill
Procedure: as §1, §2

Beta2 = biological target: T9, Beta2 (Homo sapiens, UniProt P07550); test: PDSP binding, primary screen
T9 construct: purchased NIMH Psychoactive Drug Screening Program (PDSP), University of North Carolina-Chapel Hill
Procedure: as §1, §2

5-HT2C = biological target: T10, 5-HT2C (Homo sapiens, UniProt P28335); test: PDSP binding, primary screen
T10 construct: purchased NIMH Psychoactive Drug Screening Program (PDSP), University of North Carolina-Chapel Hill
Procedure: as §1, §2

NET = biological target: T11, NET (Homo sapiens, UniProt P23975); test: PDSP binding, primary screen
T11 construct: purchased NIMH Psychoactive Drug Screening Program (PDSP), University of North Carolina-Chapel Hill
Procedure: as §1, §2

5-HT7 = biological target: T12, 5-HT7 (Homo sapiens, UniProt P34969); test: PDSP binding, primary screen
T12 construct: purchased NIMH Psychoactive Drug Screening Program (PDSP), University of North Carolina-Chapel Hill
Procedure: as §1, §2

KOR = biological target: T13, KOR (Homo sapiens, UniProt P41145); test: PDSP binding, primary screen
T13 construct: purchased NIMH Psychoactive Drug Screening Program (PDSP), University of North Carolina-Chapel Hill
Procedure: as §1, §2

5-HT2A = biological target: T14, 5-HT2A (Homo sapiens, UniProt P28223); test: PDSP binding, primary screen
T14 construct: purchased NIMH Psychoactive Drug Screening Program (PDSP), University of North Carolina-Chapel Hill
Procedure: as §1, §2

Alpha1B = biological target: T15, Alpha1B (Homo sapiens, UniProt P35368); test: PDSP binding, primary screen
T15 construct: purchased NIMH Psychoactive Drug Screening Program (PDSP), University of North Carolina-Chapel Hill
Procedure: as §1, §2

H4 = biological target: T16, H4 (Homo sapiens, UniProt Q9H3N8); test: PDSP binding, primary screen
T16 construct: purchased NIMH Psychoactive Drug Screening Program (PDSP), University of North Carolina-Chapel Hill
Procedure: as §1, §2

Sigma 1 = biological target: T17, Sigma 1 (Homo sapiens, UniProt Q99720); test: PDSP binding, primary screen
T17 construct: purchased NIMH Psychoactive Drug Screening Program (PDSP), University of North Carolina-Chapel Hill
Procedure: as §1, §2

SERT = biological target: T18, SERT (Homo sapiens, UniProt P31645); test: PDSP binding, primary screen
T18 construct: purchased NIMH Psychoactive Drug Screening Program (PDSP), University of North Carolina-Chapel Hill
Procedure: as §1, §2

MOR = biological target: T19, MOR (Homo sapiens, UniProt P35372); test: PDSP binding, primary screen
T19 construct: purchased NIMH Psychoactive Drug Screening Program (PDSP), University of North Carolina-Chapel Hill
Procedure: as §1, §2

Alpha1A = biological target: T20, Alpha1A (Homo sapiens, UniProt P35348); test: PDSP binding, primary screen
T20 construct: purchased NIMH Psychoactive Drug Screening Program (PDSP), University of North Carolina-Chapel Hill
Procedure: as §1, §2

T11 sequence (P23975 whole entry): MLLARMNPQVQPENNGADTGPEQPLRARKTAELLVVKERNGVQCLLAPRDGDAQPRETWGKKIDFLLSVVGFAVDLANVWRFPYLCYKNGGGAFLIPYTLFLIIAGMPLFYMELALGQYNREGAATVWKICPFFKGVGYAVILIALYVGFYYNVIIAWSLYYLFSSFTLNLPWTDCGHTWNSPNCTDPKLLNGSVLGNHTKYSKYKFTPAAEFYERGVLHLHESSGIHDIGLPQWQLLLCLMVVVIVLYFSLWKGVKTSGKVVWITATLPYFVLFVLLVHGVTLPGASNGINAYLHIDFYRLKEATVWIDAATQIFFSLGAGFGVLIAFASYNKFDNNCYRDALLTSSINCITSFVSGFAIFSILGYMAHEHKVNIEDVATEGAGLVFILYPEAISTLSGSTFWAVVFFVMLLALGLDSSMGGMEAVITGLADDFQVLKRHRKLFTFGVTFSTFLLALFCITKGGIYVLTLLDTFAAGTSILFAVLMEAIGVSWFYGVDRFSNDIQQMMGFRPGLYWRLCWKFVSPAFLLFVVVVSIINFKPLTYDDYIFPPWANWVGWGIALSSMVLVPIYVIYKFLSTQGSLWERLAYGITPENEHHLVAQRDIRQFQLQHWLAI
T6 sequence (Q9Y5N1 whole entry): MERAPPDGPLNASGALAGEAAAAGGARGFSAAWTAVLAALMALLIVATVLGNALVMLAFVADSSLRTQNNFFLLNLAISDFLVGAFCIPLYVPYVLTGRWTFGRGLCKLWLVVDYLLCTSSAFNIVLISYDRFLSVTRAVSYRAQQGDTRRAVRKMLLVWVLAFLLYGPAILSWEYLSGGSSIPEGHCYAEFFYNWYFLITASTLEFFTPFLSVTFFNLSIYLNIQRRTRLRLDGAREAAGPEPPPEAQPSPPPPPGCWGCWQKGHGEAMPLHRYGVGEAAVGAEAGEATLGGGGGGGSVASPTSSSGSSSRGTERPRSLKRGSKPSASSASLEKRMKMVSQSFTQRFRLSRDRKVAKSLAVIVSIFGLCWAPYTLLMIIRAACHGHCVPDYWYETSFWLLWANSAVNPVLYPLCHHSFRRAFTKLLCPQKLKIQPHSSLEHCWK
T3 sequence (P35367 whole entry): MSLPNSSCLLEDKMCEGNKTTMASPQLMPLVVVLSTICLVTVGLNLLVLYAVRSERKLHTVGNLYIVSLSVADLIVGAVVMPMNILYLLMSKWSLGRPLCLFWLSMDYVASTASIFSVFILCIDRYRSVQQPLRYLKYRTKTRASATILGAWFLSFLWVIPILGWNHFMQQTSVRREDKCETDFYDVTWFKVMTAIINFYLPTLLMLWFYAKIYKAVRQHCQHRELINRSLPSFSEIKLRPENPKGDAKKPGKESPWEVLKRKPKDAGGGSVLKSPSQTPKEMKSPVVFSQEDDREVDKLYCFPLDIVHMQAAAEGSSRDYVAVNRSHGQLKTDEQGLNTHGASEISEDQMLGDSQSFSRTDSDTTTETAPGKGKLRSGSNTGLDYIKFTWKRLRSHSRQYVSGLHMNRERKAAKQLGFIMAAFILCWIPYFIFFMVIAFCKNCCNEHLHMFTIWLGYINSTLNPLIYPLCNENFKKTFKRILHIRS
T20 sequence (P35348 whole entry): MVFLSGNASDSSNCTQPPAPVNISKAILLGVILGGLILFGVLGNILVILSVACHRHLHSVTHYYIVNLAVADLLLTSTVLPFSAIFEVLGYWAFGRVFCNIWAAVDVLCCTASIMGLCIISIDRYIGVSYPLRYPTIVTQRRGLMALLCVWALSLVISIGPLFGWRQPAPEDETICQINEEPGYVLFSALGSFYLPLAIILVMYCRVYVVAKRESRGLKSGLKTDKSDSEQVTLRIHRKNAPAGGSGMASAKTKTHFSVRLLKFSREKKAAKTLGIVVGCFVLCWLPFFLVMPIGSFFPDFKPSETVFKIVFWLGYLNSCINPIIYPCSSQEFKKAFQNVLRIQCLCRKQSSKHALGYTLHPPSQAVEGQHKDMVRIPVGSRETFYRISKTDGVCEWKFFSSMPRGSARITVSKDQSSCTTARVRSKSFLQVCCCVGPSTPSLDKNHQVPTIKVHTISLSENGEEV
T16 sequence (Q9H3N8 whole entry): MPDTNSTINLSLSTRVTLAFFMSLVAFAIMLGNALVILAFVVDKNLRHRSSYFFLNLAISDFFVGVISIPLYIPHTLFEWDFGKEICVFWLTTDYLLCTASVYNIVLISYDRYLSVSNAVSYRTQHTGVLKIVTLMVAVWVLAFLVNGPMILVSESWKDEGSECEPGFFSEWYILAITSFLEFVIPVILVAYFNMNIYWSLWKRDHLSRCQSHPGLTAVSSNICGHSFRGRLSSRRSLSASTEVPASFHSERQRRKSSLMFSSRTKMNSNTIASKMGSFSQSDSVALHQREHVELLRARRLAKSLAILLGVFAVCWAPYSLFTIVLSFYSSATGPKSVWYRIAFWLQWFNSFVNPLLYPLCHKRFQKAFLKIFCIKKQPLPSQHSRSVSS
T7 sequence (Q01959 whole entry): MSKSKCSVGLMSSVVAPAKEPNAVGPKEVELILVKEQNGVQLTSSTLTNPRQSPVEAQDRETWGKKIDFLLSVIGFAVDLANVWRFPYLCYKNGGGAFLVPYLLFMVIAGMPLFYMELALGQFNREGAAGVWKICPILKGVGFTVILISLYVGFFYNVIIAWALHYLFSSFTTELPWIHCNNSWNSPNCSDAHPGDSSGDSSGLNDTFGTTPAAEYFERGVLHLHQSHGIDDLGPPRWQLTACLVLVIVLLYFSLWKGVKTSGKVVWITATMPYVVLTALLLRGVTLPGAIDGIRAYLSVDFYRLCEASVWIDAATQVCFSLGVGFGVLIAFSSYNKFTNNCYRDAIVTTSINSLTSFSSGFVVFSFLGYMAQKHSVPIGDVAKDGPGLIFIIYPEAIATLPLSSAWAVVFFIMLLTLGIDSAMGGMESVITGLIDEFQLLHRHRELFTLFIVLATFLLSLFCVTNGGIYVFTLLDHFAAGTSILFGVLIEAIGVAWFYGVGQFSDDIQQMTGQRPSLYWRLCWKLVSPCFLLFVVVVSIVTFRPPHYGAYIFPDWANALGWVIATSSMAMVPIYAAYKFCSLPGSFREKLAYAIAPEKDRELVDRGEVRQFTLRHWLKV
T5 sequence (P50406 whole entry): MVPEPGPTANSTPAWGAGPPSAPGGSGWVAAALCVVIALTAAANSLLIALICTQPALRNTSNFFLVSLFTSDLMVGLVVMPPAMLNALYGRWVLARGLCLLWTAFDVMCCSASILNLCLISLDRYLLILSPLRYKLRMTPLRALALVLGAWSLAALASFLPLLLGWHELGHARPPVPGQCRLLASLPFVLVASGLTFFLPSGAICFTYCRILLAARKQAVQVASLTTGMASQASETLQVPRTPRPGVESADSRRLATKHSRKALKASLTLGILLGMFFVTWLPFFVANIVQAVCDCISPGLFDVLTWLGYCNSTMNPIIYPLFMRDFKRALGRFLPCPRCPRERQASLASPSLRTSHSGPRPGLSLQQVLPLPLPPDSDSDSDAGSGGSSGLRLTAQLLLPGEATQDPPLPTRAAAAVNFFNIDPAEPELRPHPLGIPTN
T15 sequence (P35368 whole entry): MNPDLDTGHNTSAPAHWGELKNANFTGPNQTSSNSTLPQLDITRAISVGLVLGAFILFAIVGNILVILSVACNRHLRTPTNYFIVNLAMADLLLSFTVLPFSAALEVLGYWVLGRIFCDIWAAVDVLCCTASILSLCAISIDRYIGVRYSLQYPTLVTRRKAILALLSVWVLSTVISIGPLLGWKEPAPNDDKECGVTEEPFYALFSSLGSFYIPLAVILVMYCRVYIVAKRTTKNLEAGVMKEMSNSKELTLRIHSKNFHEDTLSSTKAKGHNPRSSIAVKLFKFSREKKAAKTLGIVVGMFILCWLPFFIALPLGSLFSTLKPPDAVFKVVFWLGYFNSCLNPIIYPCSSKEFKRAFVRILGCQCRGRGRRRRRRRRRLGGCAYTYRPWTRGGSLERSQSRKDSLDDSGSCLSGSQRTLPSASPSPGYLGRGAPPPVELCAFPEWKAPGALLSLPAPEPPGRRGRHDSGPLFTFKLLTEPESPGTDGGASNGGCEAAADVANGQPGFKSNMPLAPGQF
T10 sequence (P28335 33-458): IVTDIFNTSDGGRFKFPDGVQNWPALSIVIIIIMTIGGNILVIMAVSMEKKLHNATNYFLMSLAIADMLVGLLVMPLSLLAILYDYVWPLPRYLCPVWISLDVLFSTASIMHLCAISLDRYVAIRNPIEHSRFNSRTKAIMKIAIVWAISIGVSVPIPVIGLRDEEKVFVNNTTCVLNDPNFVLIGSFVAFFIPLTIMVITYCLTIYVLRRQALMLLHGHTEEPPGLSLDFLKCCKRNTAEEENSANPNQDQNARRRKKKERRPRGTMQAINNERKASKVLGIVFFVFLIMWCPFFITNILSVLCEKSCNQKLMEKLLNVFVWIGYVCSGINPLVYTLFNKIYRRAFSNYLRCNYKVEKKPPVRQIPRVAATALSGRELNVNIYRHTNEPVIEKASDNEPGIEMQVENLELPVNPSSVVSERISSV
T1 sequence (P11229 whole entry): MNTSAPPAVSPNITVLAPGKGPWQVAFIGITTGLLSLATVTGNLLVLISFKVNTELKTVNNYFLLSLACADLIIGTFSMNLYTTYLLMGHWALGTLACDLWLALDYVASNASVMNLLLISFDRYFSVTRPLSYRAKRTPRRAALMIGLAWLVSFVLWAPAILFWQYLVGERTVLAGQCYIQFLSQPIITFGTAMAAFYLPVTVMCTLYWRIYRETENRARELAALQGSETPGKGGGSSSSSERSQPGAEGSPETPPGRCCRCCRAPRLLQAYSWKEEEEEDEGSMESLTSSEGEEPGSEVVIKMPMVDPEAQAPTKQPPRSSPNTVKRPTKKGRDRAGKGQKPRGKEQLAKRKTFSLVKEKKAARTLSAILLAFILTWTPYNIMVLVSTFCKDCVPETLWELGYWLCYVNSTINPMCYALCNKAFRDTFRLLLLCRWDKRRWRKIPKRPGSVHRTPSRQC

Structure (SMILES): Clc1ccc(CNCc2ccc(Cn3cncn3)cc2)c(Cl)c1 [compound 22]
- stereotypic counts (C57BL/6J mice): statistically significant increase in stereotypic counts
- inhibition at 10 µM (M1): 18.3%
- inhibition at 10 µM (5-HT1D): 9.7%
- inhibition at 10 µM (H1): 6.3%
- inhibition at 10 µM (Beta3): -9.1%
- inhibition at 10 µM (5-HT6): 4.6%
- inhibition at 10 µM (H3): 17.8%
- inhibition at 10 µM (DAT): 60.5%
- inhibition at 10 µM (Beta1): -3.5%
- inhibition at 10 µM (Beta2): -0.6%
- inhibition at 10 µM (5-HT2C): 18.5%
- inhibition at 10 µM (NET): 93.4%
- inhibition at 10 µM (5-HT7): 20.2%
- inhibition at 10 µM (KOR): -10.2%
- inhibition at 10 µM (5-HT2A): 2.1%
- inhibition at 10 µM (Alpha1B): 12.8%
- inhibition at 10 µM (H4): -9.8%
- inhibition at 10 µM (Sigma 1): 93.2%
- inhibition at 10 µM (SERT): 57.3%
- inhibition at 10 µM (MOR): -3.7%
- inhibition at 10 µM (Alpha1A): -13.9%
